Values belong to the molecule of their own block, whether it stands above or below them.
Assays:
Format in all cases: functional
[1] = system: CCRF-CEM; experiment: Antiproliferative activity against human CCRF-CEM cells after 48 hrs by SRB protein assay
[2] = system: MOLT-4; experiment: Antiproliferative activity against human MOLT4 cells after 48 hrs by SRB protein assay; settings: MOLT-4, 48 h
[3] = system: RPMI-8226; experiment: Antiproliferative activity against human RPMI8226 cells after 48 hrs by SRB protein assay; settings: RPMI-8226, 48 h
[4] = system: SR; experiment: Antiproliferative activity against human SR cells after 48 hrs by SRB protein assay
[5] = system: HOP-92; experiment: Antiproliferative activity against human HOP92 cells after 48 hrs by SRB protein assay; settings: HOP-92, 48 h
[6] = system: NCI-H226; experiment: Antiproliferative activity against human NCI-H226 cells after 48 hrs by SRB protein assay; settings: NCI-H226, 48 h
[7] = system: SF-295; experiment: Antiproliferative activity against human SF295 cells after 48 hrs by SRB protein assay; settings: SF-295, 48 h
[8] = system: LOX IMVI; experiment: Antiproliferative activity against human LOXIMVI cells after 48 hrs by SRB protein assay
[9] = system: SK-MEL-5; experiment: Antiproliferative activity against human SK-MEL-5 cells after 48 hrs by SRB protein assay; settings: SK-MEL-5, 48 h
[10] = system: UACC-62; experiment: Antiproliferative activity against human UACC62 cells after 48 hrs by SRB protein assay; settings: UACC-62, 48 h
[11] = system: OVCAR-3; experiment: Antiproliferative activity against human OVCAR-3 cells after 48 hrs by SRB protein assay; settings: OVCAR-3, 48 h
[12] = system: A498; experiment: Antiproliferative activity against human A498 cells after 48 hrs by SRB protein assay; settings: A498, 48 h
[13] = system: ACHN; experiment: Antiproliferative activity against human ACHN cells after 48 hrs by SRB protein assay
[14] = system: CAKI-1; experiment: Antiproliferative activity against human CAKI1 cells after 48 hrs by SRB protein assay; settings: CAKI-1, 48 h
[15] = system: SN12C; experiment: Antiproliferative activity against human SN12C cells after 48 hrs by SRB protein assay
[16] = system: MDA-MB-231; experiment: Antiproliferative activity against human MDA-MB-231 cells after 48 hrs by SRB protein assay; settings: MDA-MB-231, 48 h
[17] = system: MDA-MB-435; experiment: Antiproliferative activity against human MDA-MB-435 cells after 48 hrs by SRB protein assay; settings: MDA-MB-435, 48 h
[18] = system: NCI-H522; experiment: Antiproliferative activity against human NCI-H522 cells after 48 hrs by SRB protein assay; settings: NCI-H522, 48 h
[19] = system: COLO 205; experiment: Antiproliferative activity against human COLO205 cells after 48 hrs by SRB protein assay; settings: COLO 205, 48 h
[20] = system: IGROV-1; experiment: Antiproliferative activity against human IGROV1 cells after 48 hrs by SRB protein assay; settings: IGROV-1, 48 h
[21] = system: SK-OV-3; experiment: Antiproliferative activity against human SKOV3 cells after 48 hrs by SRB protein assay; settings: SK-OV-3, 48 h
[22] = system: T47D; experiment: Antiproliferative activity against human T47D cells after 48 hrs by SRB protein assay
[23] = system: SNB-75; experiment: Antiproliferative activity against human SNB75 cells after 48 hrs by SRB protein assay; settings: SNB-75, 48 h
[24] = system: RXF 393; experiment: Antiproliferative activity against human RXF393 cells after 48 hrs by SRB protein assay; settings: RXF 393, 48 h
[25] = system: HCC 2998; experiment: Antiproliferative activity against human HCC2998 cells after 48 hrs by SRB protein assay; settings: HCC 2998, 48 h
[26] = system: UO-31; experiment: Antiproliferative activity against human UO31 cells after 48 hrs by SRB protein assay; settings: UO-31, 48 h
[27] = system: NCI-H460; experiment: Antiproliferative activity against human NCI-H460 cells after 48 hrs by SRB protein assay; settings: NCI-H460, 48 h
[28] = system: MCF7; experiment: Antiproliferative activity against human MCF7 cells after 48 hrs by SRB protein assay; settings: MCF7, 48 h
[29] = system: K562; experiment: Antiproliferative activity against human K562 cells after 48 hrs by SRB protein assay; settings: K562, 48 h
[30] = system: HOP-62; experiment: Antiproliferative activity against human HOP62 cells after 48 hrs by SRB protein assay; settings: HOP-62, 48 h
[31] = system: HCT-116; experiment: Antiproliferative activity against human HCT116 cells after 48 hrs by SRB protein assay; settings: HCT-116, 48 h
[32] = system: HT-29; experiment: Antiproliferative activity against human HT29 cells after 48 hrs by SRB protein assay; settings: HT-29, 48 h
[33] = system: U-251; experiment: Antiproliferative activity against human U251 cells after 48 hrs by SRB protein assay; settings: U-251, 48 h
[34] = system: Malme-3M; experiment: Antiproliferative activity against human MALME3M cells after 48 hrs by SRB protein assay
[35] = system: M14; experiment: Antiproliferative activity against human M14 cells after 48 hrs by SRB protein assay; settings: M14, 48 h
[36] = system: NCI/ADR-RES; experiment: Antiproliferative activity against human NCI/ADR-RES cells after 48 hrs by SRB protein assay

GI50 [1]: 3.39 µM | GI50 [2]: 3.31 µM | GI50 [3]: 3.09 µM | GI50 [6]: 2.88 µM | GI50 [9]: 1.7 µM | GI50 [11]: 3.31 µM | GI50 [13]: 2.63 µM | GI50 [16]: 2.24 µM | GI50 [17]: 2.88 µM
Structure (SMILES): N#Cc1c(NCc2ccccc2)nc(NCc2ccccc2)c(C#N)c1-c1cccc(O)c1
GI50 [4]: 2.09 µM | GI50 [5]: 2.51 µM | GI50 [7]: 2.95 µM | GI50 [8]: 2.95 µM | GI50 [10]: 2.09 µM | GI50 [12]: 2 µM | GI50 [14]: 2.75 µM | GI50 [15]: 2.29 µM

GI50 [18]: 8.71 µM | GI50 [19]: 2.14 µM | GI50 [21]: 5.01 µM | GI50 [22]: 0.832 µM
Structure (SMILES): COc1ccc(-c2c(C#N)c(N)nc(N3CCOCC3)c2C#N)cc1
GI50 [12]: 7.41 µM | GI50 [20]: 3.09 µM

GI50 [17]: 5.75 µM | GI50 [18]: 4.79 µM | GI50 [27]: 9.33 µM | GI50 [28]: 8.71 µM
Structure (SMILES): N#Cc1c(N)nc(N2CCOCC2)c(C#N)c1-c1ccc(Cl)cc1Cl
GI50 [5]: 3.31 µM | GI50 [12]: 2.69 µM | GI50 [20]: 6.61 µM | GI50 [23]: 6.31 µM | GI50 [24]: 5.62 µM | GI50 [26]: 3.24 µM

GI50 [22]: 12.6 µM | GI50 [25]: 13.5 µM
Structure (SMILES): N#Cc1c(N)nc(N2CCOCC2)c(C#N)c1-c1ccncc1
GI50 [12]: 18.6 µM | GI50 [20]: 12.3 µM | GI50 [34]: 9.12 µM

GI50 [6]: 0.513 µM
Structure (SMILES): N#Cc1c(N)nc(N2CCOCC2)c(C#N)c1-c1ccccn1
GI50 [10]: 0.0339 µM | GI50 [15]: 0.038 µM

GI50 [18]: 0.0234 µM
Structure (SMILES): N#Cc1c(N)nc(N2CCOCC2)c(C#N)c1-c1ccccc1Cl
GI50 [12]: 2.29 µM | TGI ([18]; read-out: Log TGI (converted)): 2.82 µM | GI50 [23]: 0.417 µM

GI50 [25]: 8.71 µM
Structure (SMILES): N#Cc1c(N)nc(N2CCOCC2)c(C#N)c1-c1cccnc1

Continued, molecule first:

Structure (SMILES): N#Cc1c(N)nc(N2CCOCC2)c(C#N)c1-c1ccc(Cl)cc1
GI50 [5]: 8.91 µM | GI50 [12]: 8.13 µM | GI50 [20]: 14.1 µM | GI50 [23]: 14.5 µM | GI50 [24]: 0.479 µM

Structure (SMILES): COc1cc(-c2c(C#N)c(N)nc(N3CCOCC3)c2C#N)cc(OC)c1OC
GI50 [4]: 13.5 µM | GI50 [19]: 5.62 µM | GI50 [22]: 15.1 µM | GI50 [23]: 1.62 µM | GI50 [25]: 5.89 µM

Structure (SMILES): N#Cc1c(N)nc(N2CCOCC2)c(C#N)c1-c1c(Cl)cccc1Cl
GI50 [11]: 2.4 µM | GI50 [12]: 3.72 µM | GI50 [14]: 2.24 µM | GI50 [16]: 3.55 µM | GI50 [17]: 1.55 µM | GI50 [18]: 2.34 µM | GI50 [20]: 2 µM | GI50 [21]: 4.07 µM | GI50 [22]: 3.39 µM | GI50 [23]: 1.74 µM | GI50 [25]: 0.0182 µM | LC50 [25]: 20 µM | TGI ([25]; read-out: Log TGI (converted)): 2.45 µM | GI50 [28]: 2.95 µM | GI50 [29]: 3.31 µM | GI50 [30]: 3.55 µM | GI50 [31]: 3.09 µM | GI50 [32]: 3.31 µM | GI50 [33]: 3.89 µM | GI50 [34]: 3.72 µM | GI50 [35]: 2.45 µM | GI50 [36]: 2.34 µM

Structure (SMILES): COc1ccc(OC)c(-c2c(C#N)c(N)nc(N3CCOCC3)c2C#N)c1
GI50 [21]: 12 µM | GI50 [23]: 12.9 µM

Structure (SMILES): N#Cc1c(N)nc(N2CCOCC2)c(C#N)c1-c1cccc(O)c1
GI50 [12]: 14.8 µM | GI50 [20]: 18.6 µM | GI50 [23]: 17.4 µM

Structure (SMILES): N#Cc1c(N)nc(N2CCSCC2)c(C#N)c1-c1ccc(O)cc1
GI50 [4]: 11.2 µM | GI50 [5]: 10 µM | GI50 [23]: 11 µM | GI50 [30]: 12.6 µM

Structure (SMILES): Cc1ccc(-c2c(C#N)c(N)nc(N3CCOCC3)c2C#N)o1
GI50 [23]: 2.75 µM
